Experimental data reported in article PMC4667193 (Scientific Reports, 2015).

Molecular target: T1, Rat M4 mAChR (Rattus norvegicus, UniProt P08485)
T1 construct: host or cells: CHO (CHO-K1) cells
T1 sequence (P08485 1-478): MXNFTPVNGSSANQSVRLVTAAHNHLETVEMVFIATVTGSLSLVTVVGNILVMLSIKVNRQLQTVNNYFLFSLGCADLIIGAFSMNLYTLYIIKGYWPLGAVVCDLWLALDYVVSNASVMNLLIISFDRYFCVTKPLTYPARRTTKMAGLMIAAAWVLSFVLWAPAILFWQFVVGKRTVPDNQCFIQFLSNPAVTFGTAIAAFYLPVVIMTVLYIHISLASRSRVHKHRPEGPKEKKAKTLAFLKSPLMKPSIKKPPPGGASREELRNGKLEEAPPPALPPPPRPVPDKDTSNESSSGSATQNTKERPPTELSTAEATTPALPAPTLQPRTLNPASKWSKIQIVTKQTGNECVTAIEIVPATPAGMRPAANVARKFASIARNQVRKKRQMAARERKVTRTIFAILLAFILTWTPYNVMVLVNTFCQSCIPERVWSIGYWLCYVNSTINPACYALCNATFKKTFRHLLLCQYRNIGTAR
Assay: calcium mobilization assay in CHO cells (Gqi5)
Type: cell-based
Settings: rat M4, 100 μM AEME on ACh curve
Description: Chinese hamster ovary (CHO) cells individually and stably expressing individual rat mAChRs (rM1 to rM5 mAChRs) were purchased from the American Type Culture Collection (ATCC) and cultured according to ATCC recommendations. To generate stable rM2 and rM4 cell lines for use in calcium mobilization assays, rM2 and rM4-expressing cells were stably transfected with a chimeric G protein (Gqi5) using Lipofectamine 2000 (Invitrogen). rM2 and rM4 cells were grown in Ham’s F-12 medium containing 10% heat-inactivated fetal bovine serum (FBS), 2 mM GlutaMAX (Gibco®), 20 mM HEPES, 500 μg/mL G418 sulfate, 200 μg/mL hygromycin B and an antibiotic-antimycotic solution (Gibco®). rM1, rM3 and rM5 mAChR-CHO cells were grown in the same medium without hygromycin B[48]. CHO cells were cultured in a 150 mm-diameter cell culture-treated dishes (Corning®) at 37 °C and 5% CO2 until complete confluence.
CHO cells expressing rM1, rM3 and rM5 were plated at 4 × 10^4 cells per well, whereas rM2 and rM4 were plated at 6 × 10^4 cells per well, in standard growth media (as described previously under “cell culture”) in 96-well plates 24 hours before assay and were incubated overnight at 37 °C in 5% CO2. […] Cells were incubated for 45 minutes (37 °C, 5% CO2) for dye loading. […] AEME concentration-response curves were determined in single-add experiments. […]

For `COC(=O)C1=CC[C@@H]2CC[C@H]1N2C` [AEME, anhydroecgonine methyl ester], the mechanism of action was “antagonized the effects of ACh”.
